US5061721A (G. D. Searle & Co., priority 1990, dated 1991)

Assays:
Male Long-Evans rats = assay: Passive avoidance assay; format: in vivo, rat; details: for Latency in Seconds in Passive Avoidance: saline 11.9; for Latency to enter box 24 hours after shock: n = 6
Source text: Subjects: Male Long-Evans rats weighing about 200 g (Sasco) were used. They were housed two per cage with ad lib food and water for the duration of the experiment.
Apparatus: The apparatus consisted of a plexiglass box (32×26×20 cm) with a lid with a floor of metal rods spaced 1.8 cm apart. The box was divided into two chambers, one painted black and the other gray. Two doors (12 cm high) were cut into the front of the box allowing access into each chamber.
A Y-shaped plexiglas runway was attached to the front of the box. The stem of the Y was 16 cm long and unpainted. The arms of the Y (14 cm long each) led to the two doors and each was painted the color of the chamber to which it led. The stem of the Y extended over the edge of the table on which the apparatus was placed, so that it was approximately 75 cm above the floor. The metal floor of the box was wired to a Lafayette shock generator so that a 0.5 mAmp shock could be delivered.
Procedure: On the first rest day, each rat was placed on the runway and allowed to enter one of the chambers. The door to this chamber was then closed, and the rat was then allowed to enter the other chamber. […] Sixty minutes later, each rat was again allowed to enter one chamber, where it received a footshock for 2 seconds. […] On the third test day, the rat is again placed on the runway and allowed to enter a chamber. On days two and three, each rat's latency to enter a chamber, and which chamber it entered, are recorded.

Rats = assay: Rewarded alternation of rats in a T-maze; format: in vivo, rat; details: 3 mg/kg i.p.
Source text: Both groups learned the task in about 20 trials. Learning is defined as making 9 correct out of 10 consecutive choices. On the following day, the food reward was placed in the other arm of the maze (reversal).

[1] = molecular target: T1, NMDA receptor-associated glycine recognition site (Glycine B receptor) (Rattus norvegicus, UniProt P35439); assay: TCP modulation assay (stimulation of [3H]TCP binding); format: biochemical; details: in the presence of 0.6 μM glycine; basal binding 2583 ±381 DPM
T1 construct: synaptic plasma membranes (SPM) prepared from rat forebrain; tissue Sasco, St. Charles, Mo; (animals); host or cells: forebrain synaptic plasma membranes of 30-45 day old male Sprague-Dawley rats, Triton X-100 washed
Description: (§1) [^3 H]TCP binding was performed using Triton X-100 washed synaptic plasma membranes (SPM) prepared from rat forebrain (30-45 day old, male Sprague-Dawley; Sasco, St. Charles, Mo.) as described previously [J. W. Thomas, W. F. Hood, J. B. Monahan, P. C. Contreras and T. L. O'Donohue, Brain Res., 442, 396-398 (1988)]. […] The samples were then filtered though glass fiber filters (Schleicher and Schuell #32) which were pretreated with 0.05% (v/v) polyethylenimine. The filters were washed and the radioactivity quantitated by liquid scintillation spectrometry. […] The EC50 values for the stimulation of [^3 H]TCP binding were determined using a four parameter logistic regression analysis.

[2] = molecular target: PCP site of the NMDA-PCP receptor complex; assay: [3H]TCP binding to synaptic plasma membranes under basal conditions; parameters: species or system rat
Description: as §1

[3] = glycine prodrug; cited from earlier work

C[C@@H](N)C(=O)O [D-alanine]
Latency in Seconds in Passive Avoidance (Male Long-Evans rats; 534 mg/kg I.G.): 10.9 s

N[C@@H]1CONC1=O [D-cycloserine, 4-amino-3-isoxazolidone]
% of Saline Control Latency in Passive Avoidance (Male Long-Evans rats; 0.3 mg/kg i.p., post-shock): 160% | % of Saline Control Latency in Passive Avoidance (Male Long-Evans rats; 0.3 mg/kg i.p., pre-retrieval): 105% | % of Saline Control Latency in Passive Avoidance (Male Long-Evans rats; 0.3 mg/kg i.p., pre-shock): 152% | % of Saline Control Latency in Passive Avoidance (Male Long-Evans rats; 3 mg/kg i.p., post-shock): 215% | % of Saline Control Latency in Passive Avoidance (Male Long-Evans rats; 3 mg/kg i.p., pre-retrieval): 153% | % of Saline Control Latency in Passive Avoidance (Male Long-Evans rats; 3 mg/kg i.p., pre-shock): 245% | Latency to enter box 24 hours after shock (Male Long-Evans rats; 10 mg/kg i.p., drug after shock): 22.8 ± 2.4 s | Latency to enter box 24 hours after shock (Male Long-Evans rats; 10 mg/kg i.p., drug before shock): 16.6 ± 3.0 s | % of Saline Control Latency in Passive Avoidance (Male Long-Evans rats; 10 mg/kg i.p., post-shock): 153% | % of Saline Control Latency in Passive Avoidance (Male Long-Evans rats; 10 mg/kg i.p., pre-retrieval): 180% | % of Saline Control Latency in Passive Avoidance (Male Long-Evans rats; 10 mg/kg i.p., pre-shock): 138% | % of Saline Control Latency in Passive Avoidance (Male Long-Evans rats; 20 mg/kg i.p., pre-retrieval): 100% | Latency in Seconds in Passive Avoidance (Male Long-Evans rats; 60 mg/kg I.G.): 17.3 s | Trials to learn the reversal (Rats; following day, saline about 32 trials): about 20 trials | Trials to learn place learning task (9 correct out of 10 consecutive choices) (Rats; initial task): about 20 trials

NCC(=O)O [Glycine]
Maximum specific [3H]TCP binding [1]: 4712±779 DPM

c1csc(C2(N3CCCCC3)CCCCC2)c1 [[^3 H]TCP]
Kd [2]: 44 nM

CCCCCNCC(N)=O [milacemide]
Increase of whole brain content of glycine [3]: 30%
